Like-named read-outs stand apart in the source and are kept apart here.
Columns and labels:
[1] = target: RRE-Rev34-50 interaction (RRE hairpin and frevp); experiment: Fluorescence polarization displacement assay of the RRE-Rev34-50 interaction; assay type: binding, HIV-1
[2] = tested on: HIV-1 (NL4.3-Ren); experiment: microbe, parasite or virus in culture; assay type: cell-based; settings: for EC50: read-out: EC50 (NL4.3-Ren)
[3] = Cellular viability (CellTiter Glo); assay type: cell-based; settings: human, MT-2 cells; 48 h, CellTiter Glo; read-out: CC50 (celular viability)
[4] = tested on: MT-2 cells; experiment: Cellular viability (CellTiter Glo); assay type: cell-based
[5] = tested on: full-length competent HIV-1 clone; experiment: microbe, parasite or virus in culture; assay type: cell-based; settings: Human immunodeficiency virus 1, MT2, 48 h, read-out: EC50 post-integration
[6] = target: RRE RNA hairpin (internal loop IIB); experiment: SPR analysis of interaction with RRE RNA hairpin; assay type: binding, HIV-1
[7] = target: RREc hairpin; experiment: SPR binding specificity relative to control RREc hairpin; parameters: species or system HIV-1
Method: (§1) The interaction of these biphenyl and terphenyl compounds with the RRE RNA hairpin (SEQ. ID. No 1) was analysed using surface plasmon resonance (SPR) experiments(19). In addition to the RRE, two control RREc (SEQ. ID. No 2) and TARc (SEQ. ID. No 3) hairpins were also immobilised on the chips. In the RREc hairpin the internal loop forming the Rev high-affinity binding site is replaced with a G:G opposition, whereas in the TARc hairpin this loop is substituted with the HIV-1 Tat-binding UCU bulge(20). In this way, applicants could simultaneously assess the interaction of each ligand with RRE, RREc and TARc, obtaining important information about binding selectivity. In addition, the SPR methodology allows deduction of binding stoichiometries, which are likewise related to the specificity of the interaction between a ligand and a given RNA species. These are key considerations in the nucleic acid recognition field(4, 5, 14).
(§2) The Surface Plasmon Resonance (SPR) experiments were carried out at 25° C. with a Biacore T100 optical biosensor system, 4-channel streptavidin-derivatized Series S SA chips, and either 10 mM MES (pH 6.25), 150 mM NaCl, 1 mM EDTA and 0.005% P20 or 10 mM HEPES pH 7.4, 150 mM NaCl, 3 mM EDTA and 0.005% P20 aqueous solutions as mobile phases. After immobilizing approximately 300 response units (RU) of the RRE, RREc and TARc RNA hairpins on the chips, the compounds were injected during 10-minute periods at a flow rate of 20 μL/min and at concentrations generally ranging from 0.01 μM to 100.0 μM, and then allowed to dissociate for 10 more minutes. The RNA surfaces were regenerated with solutions containing 0.5 to 1 M NaCl and 10 to 100 mM NaOH, depending on the ligand.
(§3) RNA-ligand SPR equilibrium dissociation constants (Kd) were determined by fitting the sensorgrams to one-site or two-site equations:
(§4) [formula] [formula] where RU is the response in the steady-state region of the sensorgrams, C is the concentration of free compound in equilibrium with the complex, RUmax is the maximum response and RI is an offset term accounting for the bulk refractive index contribution of the sample. In these models, Kd, RUmax and RI are adjustable parameters, and the stoichiometry of each binding site was determined by comparing the fitted RUmax values with the predicted ones, calculated from the molecular weights of RNA and compound and the amount of RNA in the flow cell(32). The two-site equation was only utilized if it provided a clear curve-fitting improvement over the one-site model. The specificity of the RRE interaction was quantified by calculating the Kd(RREc)/Kd(RRE) and Kd(RRE)/Kd(TARc) ratios. All SPR experiments were double-referenced(33).

[8] = target: TARc hairpin; experiment: SPR binding specificity relative to control TARc hairpin; parameters: species or system HIV-1
Method: as §1, §2, §3
as §4, with “The specificity of the RRE interaction was quantified by calculating the Kd(RREc)/Kd(RRE) and Kd(RRE)/Kd(TARc) ratios.” left out

[9] = tested on: HIV-1 LTR promoter; assay type: cell-based
[10] = tested on: Escherichia coli (ATCC 53868); experiment: Disk diffusion assay (Kirby-Bauer), E. coli; assay type: cell-based; settings: disk potency 20 μg, 8 mm discs, 16-18 hours at 37° C.
[11] = tested on: Staphilococcus aureus (ATCC 35556); experiment: Disk diffusion assay (Kirby-Bauer), S. aureus; assay type: cell-based; settings: disk potency 20 μg, 8 mm discs, 16-18 hours at 37° C.
[12] = tested on: RRE hairpin; experiment: Two-dimensional NMR (TOCSY) titration of the RRE hairpin; assay type: binding, HIV-1; settings: D2O, pH 6.0
[13] = tested on: RRE-Rev; experiment: microbe, parasite or virus in culture; assay type: cell-based, HIV-1
[14] = read-out: IC50 (RRE-Rev 50% inhibitory concentration), fluorescence polarization, 25° C., 60 nM RRE and 10 nM frevp
[15] = Human immunodeficiency virus 1, 48 h
[16] = 25° C., pH 7.4, high affinity site when two-site model, footnote d compounds: ligand range 0.1-25 μM, read-out: Kd(RRE)
[17] = fluorescence anisotropy, read-out: IC50 (RRE-Rev34-50 inhibition)

| SMILES | IC50 [1, 14] [µM] | inhibition of HIV-1 replication (in words) [2] | EC50 [2, 15] [µM] | CC50 at 48 h [3] [µM] | cellular toxicity (in words) [4] | EC50 [5] [µM] | inhibition of HIV-1 LTR-mediated transcription (in words) [9] | disk susceptibility of E. coli (diameter of the inhibition area) [10] | disk susceptibility of S. aureus (diameter of the inhibition area) [11] | RRE interaction by NMR chemical shift perturbation (in words) [12] | further results |
| --- | --- | --- | --- | --- | --- | --- | --- | --- | --- | --- | --- |
| COc1cc(CCN)c(-c2cc(C)c(-c3cc(CCN)c(OCc4ccccc4)c(CCN)c3)c(C)c2)c(CCN)c1 [IIS-375, 2,2′,2″,2′″-[4″-(Benzyloxy)-4-methoxy-3′,5′-dimethyl-(1,1′:4′,1″-terphenyl)-2,3″,5″,6-tetrayl]tetraethanamine chlorhydrate] | 32.2 ± 2.3 | inhibited HIV-1 replication | 24.8 | > 100 | no cellular toxicity | 21.4 |  |  |  |  |  |
| COc1cc(CCN)c(-c2ccc(-c3cc(CCN)c(O)c(CCN)c3)c(OC)c2)c(CCN)c1 [IIS-358, 2″,3,5,6″-Tetrakis(2-aminoethyl)-2′,4″-dimethoxy-(1,1′:4′,1″-terphenyl)-4-ol chlorhydrate] | 808 ± 462 |  | > 100 | > 100 |  |  | inhibited transcription of the reporter gene | inactive | inactive |  | Kd ([6]; 25° C., pH 6.3, high affinity site when two-site model, JB-399 and IIS-530: ligand range 0.1-25 μM, read-out: Kd(RRE)): 13 ± 9 µM; Kd(RREc)/Kd(RRE) ([7]; 25° C., pH 6.3): 1.9; Kd(TARc)/Kd(RRE) ([8]; 25° C., pH 6.3): 6.0 |
| CCc1cc(-c2c(CCN)cc(OC)cc2CCN)cc(CC)c1-c1cc(CCN)c(OCc2ccccc2)c(CCN)c1 [IIS-771, 2,2′,2″,2′″-(4″-(benzyloxy)-3′,5′-diethyl-4-methoxy-[1,1′:4′,1″-terphenyl]-2,3″,5″,6-tetrayl)tetraethanamine] | 77.2 ± 15.5 | inhibited HIV-1 replication | 42.6 | > 100 | no cellular toxicity | > 100 |  |  |  |  | Kd [6, 16]: 17.6 ± 1.8 µM; Kd(RREc)/Kd(RRE) ([7]; 25° C., pH 7.4): 1.0; Kd(TARc)/Kd(RRE) ([8]; 25° C., pH 7.4): 1.7 |
| NC[C@@H]1O[C@H](O[C@H]2[C@@H](O)[C@H](O[C@@H]3[C@@H](O)[C@H](N)C[C@H](N)[C@H]3O[C@H]3O[C@H](CN)[C@@H](O)[C@H](O)[C@H]3N)O[C@@H]2CO)[C@H](N)[C@@H](O)[C@@H]1O [Neomycin B, neomycin B, reference compound] |  |  |  |  |  |  |  | 15.2 ± 2.1 | 12.8 ± 1.9 | unspecific | Kd ([6]; higher affinity site, read-out: equilibrium dissociation constant Kd (RRE)): 2.4 ± 1.1 µM; Kd(RREc)/Kd(RRE) [7]: 0.9; Kd(TARc)/Kd(RRE) [8]: 2.3; Ki ([1]; calculated from IC50, assuming one ligand molecule displaces frevp, read-out: Ki inhibition constant): 2 ± 0.2 µM; EC50 ([2]; HIV-1 infection assay, 48 h post-infection): > 100 µM; CC50 ([4]; 48 h, CellTiter Glo, read-out: CC50 (celular viability)): > 100 µM |
| NCCc1cc(-c2cc(CCN)c(O)c(CCN)c2)cc(CCN)c1O [JB-391, 3,3′,5,5′-tetrakis(2-aminoethyl)-[1,1′-biphenyl]-4,4′-diol] |  |  | 50 to 100 | > 100 |  | > 100 |  | inactive | inactive | unspecific | IC50 [1, 17]: 7.7 µM |
| CCc1cc(-c2c(CCN)cc(OC)cc2CCN)ccc1-c1cc(CCN)c(OCc2ccccc2)c(CCN)c1 [IIS-758, 2,2′,2″,2′″-[4″-(Benzyloxy)-3′-ethyl-4-methoxy-(1,1′:4′,1″-terphenyl)-2,3″,5″,6-tetrayl]tetraethanamine chlorhydrate] | 78.1 ± 6.5 | inhibited HIV-1 replication | 32.3 | > 100 | no cellular toxicity | 17 | inhibited transcription of the reporter gene |  |  |  | Kd [6, 16]: 16.7 ± 1.6 µM; Kd(RREc)/Kd(RRE) ([7]; 25° C., pH 7.4): 1.3; Kd(TARc)/Kd(RRE) ([8]; 25° C., pH 7.4): 2.0 |
| COc1cc(CCN)c(-c2cc(C)c(-c3cc(CCN)c(O)c(CCN)c3)c(C)c2)c(CCN)c1 [IIS-420, 2″,3,5,6″-Tetrakis(2-aminoethyl)-4″-methoxy-2′,6′-dimethyl-(1,1′:4′,1″-terphenyl)-4-ol chlorhydrate] |  | inhibited HIV-1 replication | 3.4 | > 100 | no cellular toxicity | 5 | inhibited transcription of the reporter gene |  |  | greatest RNA chemical shift variations | IC50 [1, 17]: 6.8 µM; IC50 ([13]; Human immunodeficiency virus 1, read-out: IC50 (RRE-Rev), pCMV-Rev 20 ng, pDM628 500 ng/well): 10.4 ± 2.4 µM; IC50 ([13]; Human immunodeficiency virus 1, read-out: IC50 (RRE-Rev), pCMV-Rev 200 ng, pDM628 500 ng/well): 21.4 ± 6.3 µM; IC50 ([13]; Human immunodeficiency virus 1, read-out: IC50 (RRE-Rev), pCMV-Rev 500 ng, pDM628 500 ng/well): 50 to 100 µM; IC50 ([13]; Human immunodeficiency virus 1, read-out: IC50 (Rev-mediated transport of RRE-containing RNA), depends on concentration of Rev-encoding plasmid): 10.4 to 21.4 µM |
